GI50 and TGI data for ten molecules are collected here from PubChem BioAssay (NCI).

Test systems include ACHN renal; MOLT-4 leukemia; MDA-MB-435; NCI-H226 lung; OVCAR-4 ovarian; HOP-62 NSCLC; HCT-15 colon; M14 melanoma; SK-MEL-28 melanoma; HT29 colon.
Assay in all cases: DTP human tumour cell line panel, 48 h

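In this assay, cells in 96-well plates receive the compound at five concentrations for 48 hours. Endpoints are linearly interpolated between the surrounding concentrations. GI50 is the concentration that inhibits growth by half. TGI: total growth inhibition.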 Where only a bound is given, the exact number is not on record here.

A word on the GI50: it is the concentration that inhibits growth by half. For orientation: TGI means the concentration at which net growth stops. As for `COc1ccccc1CNCCCN1C(=O)c2ccc3c4c(ccc(c24)C1=O)C(=O)N(CCCNCCCCNCCCCN)C3=O`, the GI50 with ACHN renal is 2.82 µM; in the assay with MOLT-4 leukemia, 3.23 µM; in the assay on MDA-MB-435, 1.62 µM; with NCI-H226 lung, 1.83 µM; with OVCAR-4 ovarian, 0.346 µM; in the assay with HOP-62 NSCLC, 1.78 µM. For the same molecule, the GI50 in the assay on HCT-15 colon is 2.92 µM; with M14 melanoma, 1.87 µM; in the assay on SK-MEL-28 melanoma it was 2.1 µM; with HT29 colon, 1.35 µM. The concentration for total growth inhibition (TGI) in the assay on ACHN renal is above 33.9 µM; in the assay with MOLT-4 leukemia, 19.5 µM; in the assay on MDA-MB-435 it was 3.37 µM; in the assay with NCI-H226 lung, 6.65 µM; in the assay with OVCAR-4 ovarian it was 1.4 µM; with HOP-62 NSCLC it was 7.64 µM. Also, the concentration for total growth inhibition (TGI) in the assay on HCT-15 colon is 22.8 µM; with M14 melanoma it was 4.68 µM; with SK-MEL-28 melanoma, 5.9 µM; in the assay with HT29 colon, above 28.2 µM.
As for `Nc1ncnc2c1c(-c1cccc(OCc3ccccc3)c1)cn2C1CC(CN2CCCC2)C1` (stereo unspecified), the GI50 in the assay with ACHN renal is 2.93 µM; in the assay on MOLT-4 leukemia, 2.7 µM; in the assay with MDA-MB-435 it was 1.29 µM; in the assay with NCI-H226 lung, 1.34 µM; in the assay on OVCAR-4 ovarian, 1.86 µM; with HOP-62 NSCLC it was 1.99 µM. Moreover, the GI50 is 1.47 µM in the assay on HCT-15 colon, 1.61 µM in the assay with M14 melanoma, 1.4 µM with SK-MEL-28 melanoma and 0.117 µM in the assay on HT29 colon. Moreover, the TGI stood at 11 µM in the assay on ACHN renal; 8.57 µM in the assay with MOLT-4 leukemia; 3.08 µM in the assay on MDA-MB-435; 6.98 µM with NCI-H226 lung; 6.59 µM in the assay with OVCAR-4 ovarian; 5.5 µM in the assay on HOP-62 NSCLC. Further, the total growth inhibition concentration (TGI) amounted to 5.94 µM in the assay with HCT-15 colon, 3.2 µM in the assay with M14 melanoma, 2.8 µM in the assay on SK-MEL-28 melanoma and 1.63 µM in the assay with HT29 colon.
Turning to `O=C1Nc2cc(Cl)ccc2Oc2cc(Oc3ccccc3)ccc21`, the GI50 in the assay on ACHN renal was 12.2 µM; in the assay with MOLT-4 leukemia, 4.78 µM; in the assay on MDA-MB-435, 0.761 µM; with NCI-H226 lung it was 6.41 µM; with OVCAR-4 ovarian, 6.52 µM; in the assay with HOP-62 NSCLC it was 5.68 µM. In addition, the GI50 was 3.84 µM in the assay on HCT-15 colon, 4.76 µM in the assay on M14 melanoma, 5.94 µM in the assay with SK-MEL-28 melanoma and 3.22 µM with HT29 colon. For the same molecule, the total growth inhibition concentration (TGI) in the assay with ACHN renal was 76.6 µM; in the assay with MOLT-4 leukemia, above 100 µM; in the assay on MDA-MB-435 it was 5.85 µM; in the assay with NCI-H226 lung, 55.8 µM; with OVCAR-4 ovarian, 23.8 µM; in the assay with HOP-62 NSCLC, 20 µM. Further, the total growth inhibition concentration (TGI) is above 100 µM in the assay with HCT-15 colon, 50.2 µM with M14 melanoma, 32.8 µM in the assay on SK-MEL-28 melanoma and 18.3 µM in the assay on HT29 colon.
Regarding `COc1ccc(-c2cn(-c3ccc(Cl)cc3)c(=S)[nH]2)cc1OC`, the GI50 is 9.53 µM with ACHN renal; above 100 µM in the assay with MOLT-4 leukemia; above 100 µM in the assay on MDA-MB-435; 3.62 µM with NCI-H226 lung; 20.8 µM in the assay with OVCAR-4 ovarian; 21.5 µM in the assay with HOP-62 NSCLC. Further, the GI50 in the assay with HCT-15 colon is 5.22 µM; in the assay on SK-MEL-28 melanoma it was 22.3 µM; in the assay on HT29 colon, 3.89 µM. For the same molecule, the concentration for total growth inhibition (TGI) in the assay on ACHN renal, with MOLT-4 leukemia, with MDA-MB-435, in the assay with NCI-H226 lung, in the assay on OVCAR-4 ovarian and with HOP-62 NSCLC was above 100 µM throughout. The concentration for total growth inhibition (TGI) with HCT-15 colon, with SK-MEL-28 melanoma and in the assay with HT29 colon was above 100 µM in each case.
Consider `O=C1CSC(=S)N1c1ccc(F)cc1F`, for which the total growth inhibition concentration (TGI) with ACHN renal, with MDA-MB-435, in the assay with NCI-H226 lung, with OVCAR-4 ovarian, in the assay with HOP-62 NSCLC and in the assay with HCT-15 colon was above 100 µM in each case. The TGI in the assay on M14 melanoma, in the assay with SK-MEL-28 melanoma and in the assay with HT29 colon was above 100 µM each time.
As for `CN(C)CCCNC(=O)c1cc(NC(=O)CCNC(=O)c2ccc3c(c2)C(=O)c2ccccc2C3=O)cn1C`, the GI50 in the assay on MOLT-4 leukemia is 37.4 µM; with MDA-MB-435 it was above 100 µM; with NCI-H226 lung, above 100 µM; in the assay with HOP-62 NSCLC, above 100 µM; in the assay on M14 melanoma, above 100 µM; in the assay on HT29 colon it was 79.8 µM. The total growth inhibition concentration (TGI) with MOLT-4 leukemia, in the assay on MDA-MB-435, with NCI-H226 lung, in the assay on HOP-62 NSCLC, with M14 melanoma and in the assay on HT29 colon was above 100 µM throughout.
`CSC(=S)N/N=C/c1ccccc1`: the total growth inhibition concentration (TGI) in the assay on ACHN renal was above 100 µM; in the assay on MDA-MB-435, above 100 µM; in the assay with NCI-H226 lung, above 100 µM; in the assay with OVCAR-4 ovarian it was 98.5 µM; with HOP-62 NSCLC, above 100 µM; in the assay on HCT-15 colon, above 100 µM. Also, the TGI in the assay on M14 melanoma, in the assay with SK-MEL-28 melanoma and with HT29 colon was above 100 µM each time.
`CCOc1cc(C=O)c2c(ccc3ccc(OC)c(OC)c32)c1OC`: the concentration for total growth inhibition (TGI) with ACHN renal, in the assay with MOLT-4 leukemia, with MDA-MB-435, in the assay on NCI-H226 lung, with OVCAR-4 ovarian and in the assay with HCT-15 colon was above 100 µM throughout. Moreover, the TGI in the assay on M14 melanoma, with SK-MEL-28 melanoma and with HT29 colon was above 100 µM throughout.
In the case of `CCOC(=O)c1ccc2c(c1)[n+](=O)c(C(=O)c1ccc3ccccc3c1)c(C(F)(F)F)n2[O-]`, the GI50 was 1.47 µM with ACHN renal; 1.53 µM in the assay with MDA-MB-435; 1.74 µM in the assay with NCI-H226 lung; 0.261 µM with OVCAR-4 ovarian; 1.66 µM in the assay with HOP-62 NSCLC; 1.49 µM in the assay with HCT-15 colon. The GI50 is 1.44 µM in the assay with M14 melanoma, 1.66 µM in the assay on SK-MEL-28 melanoma and 1.08 µM in the assay with HT29 colon. The TGI is 2.93 µM in the assay on ACHN renal; 2.95 µM in the assay on MDA-MB-435; 3.57 µM in the assay on NCI-H226 lung; 0.848 µM with OVCAR-4 ovarian; 3.08 µM with HOP-62 NSCLC; 3.3 µM in the assay on HCT-15 colon. For the same molecule, the TGI in the assay with M14 melanoma is 2.74 µM; in the assay on SK-MEL-28 melanoma, 3.02 µM; in the assay with HT29 colon, 2.27 µM.
On to `COC1OCC(OS(=O)(=O)c2ccc(C)cc2)C(OC(=O)c2ccccc2)C1OC(=O)c1ccccc1` (stereo unspecified), for which the GI50 in the assay on ACHN renal is 8.83 µM; in the assay on MDA-MB-435 it was 0.662 µM; with NCI-H226 lung it was above 100 µM; in the assay on OVCAR-4 ovarian, 9.24 µM; in the assay with HOP-62 NSCLC, 3.18 µM; in the assay with HCT-15 colon it was 5.3 µM. Further, the GI50 with SK-MEL-28 melanoma was 4.62 µM; in the assay with HT29 colon, 3.96 µM. The total growth inhibition concentration (TGI) with ACHN renal was above 100 µM; with MDA-MB-435 it was 3.94 µM; in the assay on NCI-H226 lung, above 100 µM; with OVCAR-4 ovarian, above 100 µM; with HOP-62 NSCLC, above 100 µM; with HCT-15 colon, above 100 µM. The TGI in the assay with SK-MEL-28 melanoma and with HT29 colon was above 100 µM in each case.
